# In ChEMBL document CHEMBL5352443, “S-acylthioalkyl ester (SATE)-based prodrugs of deoxyribose cyclic dinucleotides (dCDNs) as the STING agonist for antitumor immunotherapy” (Eur J Med Chem, 2022):
# Calls of active or inactive are those of the source. The calls are words filed in the database; no cut-off is given here.
# Experiments:
# [1] = Stability of the compound in 20% fetal bovine serum assessed as drug degradation at 100 uM measured at 72 hrs by HPLC analysis; assay type: ADME, cell-free, Bos taurus; details: cattle
# [2] = target: T1, Stimulator of interferon genes protein (Homo sapiens, UniProt Q86WV6); assay: Agonist activity at STING in human THP-1 reporter cells incubated for 4 hrs in presence of lipofectamine 2000 by QUANTI-Luc assay; assay type: cell-based
# [3] = target: T1, Stimulator of interferon genes protein; assay: Agonist activity at STING in human THP-1 reporter cells incubated for 24 hrs by QUANTI-Luc assay; assay type: cell-based
# [4] = target: T1, Stimulator of interferon genes protein; assay: Agonist activity at STING in PMA-treated human THP-1 reporter cells incubated for 30 mins in presence of digitonin by QUANTI-Luc assay; assay type: cell-based
# [5] = Toxicity in BALB/c mouse implanted with mouse CT26 cells expressing high luciferase assessed as mouse survival rate at 0.5 mg/kg, IT administered intratumorally on day 1,3,5,7 and measured at 50 days; assay type: organism-based; details: in vivo, route it(Intratumoral), time 50 day
# [6] = test system: CT26; assay: Antitumor activity against mouse CT26 cells expressing high luciferase implanted in BALB/c mouse assessed as darkening of tumor tissue at 0.5 mg/kg, IT administered intratumorally on day 1,3,5,7 and measured on day 1,9,14,24 by fluorescence imaging analysis; assay type: functional, organism-based; details: route it(Intratumoral), time 24.0 day
# T1 sequence (Q86WV6 whole entry): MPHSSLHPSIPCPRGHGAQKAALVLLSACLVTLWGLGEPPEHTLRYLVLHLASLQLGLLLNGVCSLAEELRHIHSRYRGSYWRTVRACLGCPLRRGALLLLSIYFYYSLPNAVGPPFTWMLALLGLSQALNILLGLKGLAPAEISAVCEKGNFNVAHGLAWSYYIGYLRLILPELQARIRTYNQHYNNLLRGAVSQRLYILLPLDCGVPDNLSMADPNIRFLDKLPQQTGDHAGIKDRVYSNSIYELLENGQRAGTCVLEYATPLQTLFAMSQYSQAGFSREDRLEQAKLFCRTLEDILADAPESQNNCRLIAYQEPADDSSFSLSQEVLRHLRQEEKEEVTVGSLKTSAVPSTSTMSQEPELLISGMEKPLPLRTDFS
structure (smiles),measurement,setting,value
Nc1ncnc2c1ncn2[C@H]1C[C@@H]2OP(=O)(O)OC[C@H]3O[C@@H](n4cnc5c(N)ncnc54)C[C@@H]3OP(=O)(O)OC[C@H]2O1,Stability,"[1]; serum, 72 h, 100 µM",Stable
same,EC50,[2],673 nM
same,EC50,[3],41300 nM
same,EC50,[4],317 nM
Nc1nc2c(ncn2[C@@H]2O[C@@H]3COP(=O)(O)O[C@H]4[C@@H](O)[C@H](n5cnc6c(N)ncnc65)O[C@@H]4COP(=O)(O)O[C@@H]2[C@@H]3O)c(=O)[nH]1,"metabolised at 72 h, 100 µM","[1]; 20% fetal bovine serum, read-out: Drug degradation",80%
Nc1ncnc2c1ncn2[C@@H]1O[C@@H]2COP(=O)(S)O[C@@H]3[C@H](O)[C@@H](COP(=O)(S)O[C@H]2[C@H]1O)O[C@H]3n1cnc2c(N)ncnc21 (some centres not stated),survival at 1200 h,[5],75%
same,Activity,[6],Active
